Data as given in ChEMBL document CHEMBL3885861, “Open TG-GATES”.

Species: Rattus norvegicus
Assay: Open TG-GATES - Regimen: Daily Repeat
Format: toxicity, organism-based, Sprague-Dawley
Set-up: regimen Daily Repeat, gender Male, age 6 weeks
Settings: in vivo, po, 300 mg/kg, […], route gavage, dose level Middle; for KIDNEY_L / KIDNEY_R / KIDNEY_TOTAL: tissue Kidney; for LIVER: tissue Liver; for ALP / AST / BUN / CRE / Ca / Cl / DBIL / GLC / IP / K / LDH / Na / PL / RALB / TBIL / TC / TG / TP / gamma-GTP: tissue Plasma

COc1ccc2[nH]c([S+]([O-])Cc3ncc(C)c(OC)c3C)nc2c1 (configuration not stated) [OMEPRAZOLE]
Hb (tissue Blood, time 28 day): 14.5 g/dL
Ht (tissue Blood, time 28 day): 42.2%
Lym (tissue Blood, time 28 day): 80.4%
MCH (tissue Blood, time 28 day): 18.7 pg
MCHC (tissue Blood, time 28 day): 34.3%
MCV (tissue Blood, time 28 day): 54.6 fL
Mono (tissue Blood, time 28 day): 2.4%
Neu (tissue Blood, time 28 day): 15.6%
PT (tissue Blood, time 28 day): 12.4 s
Plat (tissue Blood, time 28 day): 119.7 x10_4/uL
RBC (tissue Blood, time 28 day): 773.8 x10_4/ul
Ret (tissue Blood, time 28 day): 2.7%
WBC (tissue Blood, time 28 day): 105.1 x10_2/uL
KIDNEY_L (time 7 day): 1.1 g
KIDNEY_R (time 7 day): 1.1 g
KIDNEY_TOTAL (time 7 day): 2.2 g
KIDNEY_L (time 14 day): 1.3 g
KIDNEY_R (time 14 day): 1.3 g
KIDNEY_TOTAL (time 14 day): 2.5 g
KIDNEY_L (time 28 day): 1.4 g
KIDNEY_R (time 28 day): 1.4 g
KIDNEY_TOTAL (time 28 day): 2.9 g
LIVER (time 7 day): 14.5 g
LIVER (time 14 day): 15.7 g
LIVER (time 28 day): 18.2 g
ALP (time 7 day): 924.4 IU/L
AST (time 7 day): 63.8 IU/L
BUN (time 7 day): 17.2 mg/dL
CRE (time 7 day): 0.4 mg/dL
Ca (time 7 day): 10.8 mg/dL
Cl (time 7 day): 101.2 meq/L
DBIL (time 7 day): 0.086 mg/dL
GLC (time 7 day): 208.6 mg/dL
IP (time 7 day): 8.8 mg/dL
K (time 7 day): 3.8 meq/L
LDH (time 7 day): 248.4 IU/L
Na (time 7 day): 140.8 meq/L
PL (time 7 day): 173.8 mg/dL
RALB (time 7 day): 3.4 g/dL
TBIL (time 7 day): 0.1 mg/dL
TC (time 7 day): 89 mg/dL
TG (time 7 day): 124.8 mg/dL
TP (time 7 day): 5.8 g/dL
gamma-GTP (time 7 day): 1 IU/L
ALP (time 14 day): 808.4 IU/L
AST (time 14 day): 62 IU/L
BUN (time 14 day): 17.2 mg/dL
CRE (time 14 day): 0.5 mg/dL
Ca (time 14 day): 10.5 mg/dL
Cl (time 14 day): 101.6 meq/L
DBIL (time 14 day): 0.066 mg/dL
GLC (time 14 day): 205.4 mg/dL
IP (time 14 day): 8.3 mg/dL
K (time 14 day): 3.9 meq/L
LDH (time 14 day): 198 IU/L
Na (time 14 day): 141.4 meq/L
PL (time 14 day): 162.6 mg/dL
RALB (time 14 day): 3.6 g/dL
TBIL (time 14 day): 0.1 mg/dL
TC (time 14 day): 84.4 mg/dL
TG (time 14 day): 78.4 mg/dL
TP (time 14 day): 6 g/dL
gamma-GTP (time 14 day): 0.8 IU/L
ALP (time 28 day): 521.6 IU/L
AST (time 28 day): 56.2 IU/L
BUN (time 28 day): 15.6 mg/dL
CRE (time 28 day): 0.5 mg/dL
Ca (time 28 day): 10.3 mg/dL
Cl (time 28 day): 101.6 meq/L
DBIL (time 28 day): 0.062 mg/dL
GLC (time 28 day): 221.8 mg/dL
IP (time 28 day): 7.3 mg/dL
K (time 28 day): 3.7 meq/L
LDH (time 28 day): 135 IU/L
Na (time 28 day): 141.6 meq/L
PL (time 28 day): 134.8 mg/dL
RALB (time 28 day): 3.5 g/dL
TBIL (time 28 day): 0.1 mg/dL
TC (time 28 day): 70 mg/dL
TG (time 28 day): 66 mg/dL
TP (time 28 day): 6.1 g/dL
gamma-GTP (time 28 day): 1 IU/L
